Experiments:
[1] = background statement; cited from earlier work
human blood [2] = experiment: Thrombin clotting time in whole blood, alexidine solutions (Example 1); type: biochemical; details: partial clotting
Protocol: Solutions of varying alexidine concentrations (50-300 micrograms/mL) were incubated in individual test tubes, each containing 0.50 mL of human blood. The human blood was supplemented with 3.8% sodium citrate. The incubation was for 1 hour on a gyratory shaker set at 24 rpm and 37 degrees C. After 1 hour, 10 microliters of 500 Units/mL thrombin, and 60 microliters of 200 mM CaCl2 was added to each of the incubating blood samples. Blood clotting time was then measured using a stop watch. Table 1 discloses the results.

human blood [3] = experiment: Fluid phase thrombin clotting time, alexidine versus chlorhexidine (Example 4); type: biochemical; details: for clotting time: 6.25 ug/mL; for Thrombin Clotting Time in whole blood: replicates 1-5
Protocol: The following provides a side-by-side comparison of alexidine with chlorhexidine. Fluid phase experiments were conducted to compare the influences of alexidine and chlorhexidine on thrombin clotting time (Table 6). […] The reaction mixtures contained freshly drawn human blood, alexidine or chlorhexidine as indicated, and exogenously added thrombin. The experiment was repeated five times, as indicated by replicates 1-5. The concentrations of alexidine or chlorhexidine that were used in the experiments were zero ug/mL (baseline), 3.125, 6.25, 12.5, 25, 50, or 100 ug/mL, as indicated. […] This dramatic difference was also observed when higher concentrations of antimicrobials were used in the clotting reactions.

Compound | solubility in water [1] | Thrombin Clotting Time in whole blood (human blood [2]; 0.2 mg/mL alexidine) | Thrombin Clotting Time in whole blood (human blood [2]; 0.3 mg/mL alexidine) | clotting time (human blood [3]) | Thrombin Clotting Time in whole blood (human blood [3]; 12.5 μg/mL) [h] | Thrombin Clotting Time in whole blood (human blood [3]; 25 μg/mL) [h] | Thrombin Clotting Time in whole blood (human blood [3]; 50 μg/mL) [h] | Thrombin Clotting Time in whole blood (human blood [3]; 100 μg/mL) [h] | potency in inhibiting blood clotting relative to chlorhexidine (human blood [3]; thrombin clotting time, fluid phase)
N=C(NCCCCCCNC(=N)NC(=N)Nc1ccc(Cl)cc1)NC(=N)Nc1ccc(Cl)cc1.O=C(O)[C@H](O)[C@@H](O)[C@H](O)[C@H](O)CO.O=C(O)[C@H](O)[C@@H](O)[C@H](O)[C@H](O)CO [CHG, chlorhexidine gluconate] | highly soluble in water |  |  |  |  |  |  |  | 
CCCCC(CC)CNC(=N)NC(=N)NCCCCCCNC(=N)NC(=N)NCC(CC)CCCC (stereo not shown) [alexidine] | relatively low solubility in water | Greater than 72 hours (partial clotting) | Greater than 72 hours (partial clotting) | about five | >24 | >24 | >24 | >24 | four times more potent
[H]/N=C(\N/C(=N/[H])NCCCCCCNC(=N)NC(=N)Nc1ccc(Cl)cc1)Nc1ccc(Cl)cc1 [chlorhexidine] |  |  |  | about thirty |  |  | >24 | >24 | 

Source: patent US11850331B2, “Devices with anti-thrombogenic and anti-microbial treatment” (TELEFLEX MEDICAL INCORPORATED, priority 2013, dated 2023)
